The text below walks through data of US10993983B2, “Cyclic peptide epitopes and small-molecule mimics for inducing autophagy” (TRUSTEES OF TUFTS COLLEGE, priority 2016, dated 2021).

“Also recorded” adds a separate entry of the source. Bridges are numbered along the chain shown (N, C = ends). Where no end group is shown, it is not given here. [ ]: non-standard residue; d: D form. The star is where a group is joined. PhAc = O=C(Cc1ccccc1)*; Allyl = C=CC*

For the first test, the system named is HeLa cells. Briefly: Autophagy induction judged by p62 and LC3 immunoblots together. Format: cell-based. Details: key to Activity compared to wild-type WT / Activity (μM) 10, single symbol / Activity (μM) 30, single symbol / Activity (μM) 50, single symbol / Activity (μM) 100, single symbol: −: activity not reported; 0: decreased vs. WT; +: similar to WT; ++: modest increase vs. WT; +++: significant increase vs. WT. Conditions: 10 μM; Table 6, control DMSO; one symbol only. How it is done: This 10-mer sequence was substituted with various thiol-containing amino acids at various positions, and then cross-linked with various linkers as described above (FIG. 5, a and FIG. 6).
Cells were treated with peptide in OPTI-MEM (Thermo Scientific) acidified with 0.15% (v/v) 6N HCl for 3 hour. Cells were rinsed with Dulbecco's phosphate buffered saline (PBS) and lysed in lysis buffer (20 mM HEPES, 150 mM NaCl, 1 mM EDTA, 1% Triton X-100, protease inhibitor cocktail (Roche) on ice for 1 hour. Cell lysates were centrifuged at 16,000 g for 10 min at 4° C. and analyzed by SDS-PAGE and transferred to PVDF membranes. The membranes were blocked 5% non-fat dry milk (NFDM) in PBST (PBS+0.05% Tween-20) for 1 hour, then incubated overnight at 4° C. with primary antibody in 5% NFDM in PBST. The blots were washed with PBST and incubated with HRP-conjugated secondary antibodies diluted in 5% NFDM in PBST for 1 hour at room temperature. Membranes were washed with PBST and visualized with SuperSignal West Pico Chemiluminescent Substrate (Thermo Scientific). Semi-quantitative results were obtained by noting the lowest concentration at which both p62 degradation and LC3-I to LC3-II conversion were observed.
(SEQ ID NO: 16)-Sequence. […] The N-terminus was capped with an acetyl group while the C terminus was capped with a —C(O)—NH2 group. The activity reported is a summation of results from both the p62 degradation assay and the LC3 marker assay.
(In general: A western blot detects proteins with antibodies after separation by electrophoresis.)
As for “VWNATFHIWHD [Compound T17, Tat-linked linear peptide]”, the “Activity (μM) 10, single symbol” value is reported as “+”.

Still in this test, the particulars now being: 10 μM; Table 8; one symbol only.
As for “VCNATCHIWH (V[dC]NAT[dC]HIWH; cysteine pairing not given here; also: Formula I modifications, R1 T, Z MP) [Compound 75]”, the “Activity (μM) 10, single symbol” value is given as “+”.

Staying with this test, now noted: HeLa cells, immunoblot, 3 hour treatment.
As for “(pa)-VcNATcHIWH (pa-V[dC]NAT[dC]HIWH; linker 2-6 via meta‑xylene (inferred)) [DD6-m]”, the “concentration at which autophagy induction (p62 degradation and LC3 lipidation) was observed” value (from here on “concentration”) worked out at 100 µM.

On to “(pa)-VcNAcFHIAH (pa-V[dC]NA[dC]FHIAH; linker 2-5 via ortho‑xylene (inferred)) [Trp9Ala]”, for which the “concentration” value was 100 µM.

Regarding “(pa)-VcNAcFHIWA (pa-V[dC]NA[dC]FHIWA; linker 2-5 via ortho‑xylene (inferred)) [His10Ala]”, the “concentration” value came out at 100 µM.

With “(pa)-VcNAcFHIWH [LL5-o] (VCNACFHIWH; not fully specified (residues 2, 5, N-terminus, bridges); printed as (pa)-VcNAcFHIWH; cysteine pairing not given here) [ortho-xylene linker; stereoisomer with two L-cysteines, negative control]”, the “concentration” value was 100 µM.

In the case of (pentene)-VcNAcFHIWH [pentene-DD5-o], the “concentration” value was determined as 50 µM.

Still in this test, the particulars now being: HeLa cells, p62 and LC3 immunoblots.
Turning to “(pa)-VcNATcHIWH (pa-V[dC]NAT[dC]HIWH; linker 2-6 via meta‑xylene (inferred)) [DD6-m]”, the “autophagy induction, result in words” value is “capable of inducing autophagy”.

Consider “(pa)-VcNAcAHIWH (pa-V[dC]NA[dC]AHIWH; linker 2-5 via ortho‑xylene (inferred)) [Phe6Ala]”, for which the “autophagy induction, result in words” value is “complete loss of activity; also recorded: complete loss in activity”.

Regarding “(pa)-VcNAcFAIWH (pa-V[dC]NA[dC]FAIWH; linker 2-5 via ortho‑xylene (inferred)) [His7Ala]”, the “autophagy induction, result in words” value was “milder effects on activity”.

Regarding “(pa)-VcNAcFHAWH (pa-V[dC]NA[dC]FHAWH; linker 2-5 via ortho‑xylene (inferred)) [Ile8Ala]”, the “autophagy induction, result in words” value is on record as “complete loss of activity; also recorded: complete loss in activity”.

For the substance “(pa)-VcNAcFHIAH (pa-V[dC]NA[dC]FHIAH; linker 2-5 via ortho‑xylene (inferred)) [Trp9Ala]”, the “autophagy induction, result in words” value is “significantly decreased activity”.

Consider “(pa)-VcNAcFHIWA (pa-V[dC]NA[dC]FHIWA; linker 2-5 via ortho‑xylene (inferred)) [His10Ala]”, for which the “activity relative to DD5-o (fold worse)” value was determined as 5 fold and the “autophagy induction, result in words” value was “significantly decreased activity”.

As to “(pa)-VcNAcFHIWH [DD5-allyl] (pentynoyl-V[dC](Allyl)NA[dC](Allyl)FHIWH; not fully specified (C-terminus); printed as (pa)-VcNAcFHIWH [DD5-allyl]) [allyl, unstapled]”, the “autophagy induction, result in words” value is “did not induce autophagy”.

For “(pa)-VcNAcFHIWH [DD5-m] (pa-V[dC]NA[dC]FHIWH; linker 2-5 via meta‑xylene (inferred))”, the “autophagy induction, result in words” value was “did not induce autophagy”.

On to “(pa)-VcNAcFHIWH [LL5-o] (VCNACFHIWH; not fully specified (residues 2, 5, N-terminus, bridges); printed as (pa)-VcNAcFHIWH; cysteine pairing not given here) [ortho-xylene linker; stereoisomer with two L-cysteines, negative control]”, for which the “autophagy induction, result in words” value is given as “no autophagy-inducing activity”.

Consider (pentene)-VcNAcFHIWH [pentene-DD5-o], for which the “autophagy induction, result in words” value is “induced autophagy, but to a somewhat lesser extent than DD5-o”.

“(phenyl)-VcNAcFHIWH (PhAc-V[dC]NA[dC]FHIWH; linker 2-5 via ortho‑xylene (inferred); not fully specified (C-terminus); printed as (phenyl)-VcNAcFHIWH) [phenyl-DD5-o]”: the “autophagy induction, result in words” value is “showed no activity”.

For “VFDATFEIWHD [Compound T3, Tat-linked linear peptide]”, the “autophagy induction, result in words” value is “less than Tat-beclin-1”.

The same test, now with this note: Tat-linked linear peptides; summation of p62 degradation assay and LC3 marker assay.
As for “CFNATFEIWHD [Compound T1, Tat-linked linear peptide]”, the “Activity compared to wild-type WT” value is on record as “+”.

In the case of “DFNATFEIWHD [Compound T23, Tat-linked linear peptide]”, the “Activity compared to wild-type WT” value was 0.

“FNATFEIWH [Compound T30, Tat-linked linear peptide]”: the “Activity compared to wild-type WT” value is “+”.

For the substance “FNATFEIWHD [Compound T21, Tat-linked linear peptide]”, the “Activity compared to wild-type WT” value is “++”.

“FNATFHIWH [Compound T31, Tat-linked linear peptide]”: the “Activity compared to wild-type WT” value is listed as “+”.

On to “GFNATFEIWHD [Compound T24, Tat-linked linear peptide]”, for which the “Activity compared to wild-type WT” value is 0.

Regarding “TFNATFEIWHD [Compound T22, Tat-linked linear peptide]”, the “Activity compared to wild-type WT” value turned out to be 0.

On to “VFNACFEIWHD [Compound T5, Tat-linked linear peptide]”, for which the “Activity compared to wild-type WT” value was found to be 0.

Turning to “VFNATFDIWHD [Compound T7, Tat-linked linear peptide]”, the “Activity compared to wild-type WT” value is “+”.

On to “VFNATFEFWHD [Compound T18, Tat-linked linear peptide]”, for which the “Activity compared to wild-type WT” value was “+”.

Take “VFNATFEIFHD [Compound T9, Tat-linked linear peptide]”: the “Activity compared to wild-type WT” value was “+”.

Take “VFNATFEIWHE [Compound T11, Tat-linked linear peptide]”: the “Activity compared to wild-type WT” value is listed as “+”.

“VFNATFEIWYD [Compound T10, Tat-linked linear peptide]”: the “Activity compared to wild-type WT” value is “+”.

With “VFNATFELWHD [Compound T8, Tat-linked linear peptide]”, the “Activity compared to wild-type WT” value is “++”.

With “VFNATFEMWHD [Compound T16, Tat-linked linear peptide]”, the “Activity compared to wild-type WT” value is on record as “+”.

Consider “VFNATFERWHD [Compound T20, Tat-linked linear peptide]”, for which the “Activity compared to wild-type WT” value is “+”.

“VFNATFEVWHD [Compound T14, Tat-linked linear peptide]”: the “Activity compared to wild-type WT” value is listed as “+”.

Regarding “VFNATFEYWHD [Compound T19, Tat-linked linear peptide]”, the “Activity compared to wild-type WT” value is reported as “+”.

For “VFNATWEIWHD [Compound T6, Tat-linked linear peptide]”, the “Activity compared to wild-type WT” value came out at 0.

In the case of “VLNATFEIWHD [Compound T15, Tat-linked linear peptide]”, the “Activity compared to wild-type WT” value is “+”.

As for “VWAATFHIWHD [Compound T36, Tat-linked linear peptide]”, the “Activity compared to wild-type WT” value is listed as “+”.

For the substance “VWNAAFHIWHD [Compound T37, Tat-linked linear peptide]”, the “Activity compared to wild-type WT” value is on record as “++”.

For “VWNATFAIWHD [Compound T39, Tat-linked linear peptide]”, the “Activity compared to wild-type WT” value is “+++”.

For “VWNATFEIWHD [Compound T2, Tat-linked linear peptide]”, the “Activity compared to wild-type WT” value was “++”.

Take “VWNATFELWHD [Compound T12, Tat-linked linear peptide]”: the “Activity compared to wild-type WT” value is “+”.

With “VWNATFHIAHD [Compound T41, Tat-linked linear peptide]”, the “Activity compared to wild-type WT” value was “+”.

Take “VWNATFHIWAD [Compound T42, Tat-linked linear peptide]”: the “Activity compared to wild-type WT” value is “+++”.

Regarding “VWNATFHIWH [Compound T33, Tat-linked linear peptide]”, the “Activity compared to wild-type WT” value is on record as “+++”.

Regarding “VWNATFHIWHD [Compound T17, Tat-linked linear peptide]”, the “Activity compared to wild-type WT” value is given as “+++”.

As to “VWNATFHYWHD [Compound T26, Tat-linked linear peptide]”, the “Activity compared to wild-type WT” value is given as “+++”.

With “VYNATFEIWHD [Compound T13, Tat-linked linear peptide]”, the “Activity compared to wild-type WT” value was 0.

With “WNATFHIW [Compound T35, Tat-linked linear peptide]”, the “Activity compared to wild-type WT” value was “++”.

Consider “WNATFHIWH [Compound T32, Tat-linked linear peptide]”, for which the “Activity compared to wild-type WT” value is listed as “++”.

For the substance “WNATFHIWHD [Compound T34, Tat-linked linear peptide]”, the “Activity compared to wild-type WT” value is “+++”.
